Results from publication PMC7932521, “2-aminobenzimidazoles for leishmaniasis: From initial hit discovery to in vivo profiling” (PLoS Neglected Tropical Diseases, 2021).

Key:
Plasma stability = assay type: in vitro ADME, mouse; conditions: for Plasma Stability: S1 Data; for Mouse plasma stability: % remaining after 6h
Experimental: Pooled plasma was thawed in a water bath at 37°C and centrifuged at 4,000 rpm for 5 min to remove any clots. Plasma solution was prepared by adding PBS (pH 7.4) in a 1:1 ratio. It was not necessary to adjust the pH of the final plasma solution. Plasma:PBS and test compound solutions were added to the incubation plate at a final concentration of 2 μM. The plate was incubated in a shaker at 37°C and 50 rpm. Samples were removed (25 μL) from each well of the incubation plate at multiple timepoints and added to a plate containing 100 μL of quench solution (200 ng/mL tolbutamide in 50% acetonitrile/methanol) to precipitate protein. The quenched aliquots were centrifuged at 4000 rpm for 10 min at 5°C. An aliquot of supernatant was transferred from each well to a plate for analysis by LC-MS/MS. Results were calculated as the percentage of remaining parent compound in plasma after incubation.

Alpha1A = target: T1, Alpha1A (Homo sapiens, UniProt P35348); assay: Bioprofiling 6pt Antag Alpha1A CHO; assay type: cell-based; conditions: antagonist readout vs A-61603
T1 construct: expressed in transfected cells; host or cells: CHO
T1 sequence (P35348 1-466): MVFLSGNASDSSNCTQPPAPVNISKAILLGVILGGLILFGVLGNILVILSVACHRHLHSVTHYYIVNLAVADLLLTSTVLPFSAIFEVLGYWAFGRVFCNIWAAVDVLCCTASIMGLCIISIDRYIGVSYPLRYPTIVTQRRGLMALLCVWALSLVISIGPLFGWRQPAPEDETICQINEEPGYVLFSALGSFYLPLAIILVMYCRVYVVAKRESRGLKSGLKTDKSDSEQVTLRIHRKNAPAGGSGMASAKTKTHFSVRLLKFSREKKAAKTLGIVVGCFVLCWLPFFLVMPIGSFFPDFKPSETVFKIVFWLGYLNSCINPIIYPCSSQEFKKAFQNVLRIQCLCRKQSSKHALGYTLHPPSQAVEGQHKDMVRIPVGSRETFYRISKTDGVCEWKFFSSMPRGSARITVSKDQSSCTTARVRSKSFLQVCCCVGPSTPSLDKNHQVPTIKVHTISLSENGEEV
Experimental: (§1) The compounds were evaluated across a panel of 20 liability targets (37 functional assays) which included functional cell-based GPCRs and ion channels in both agonist and antagonist readout, measuring calcium flux and biochemical functional assays for nuclear hormone receptors and phosphodiesterases using TR-FRET format, in a 6 point 1:3 dilution dose series (maximum final concentration of 10 μM).

Alpha2A = target: T2, Alpha2A (Homo sapiens, UniProt P08913); assay: Bioprofiling 6pt Antag Alpha2A CHO; assay type: cell-based; conditions: antagonist readout vs UK-14304
T2 construct: expressed in transfected cells; host or cells: CHO
T2 sequence (P08913 1-465): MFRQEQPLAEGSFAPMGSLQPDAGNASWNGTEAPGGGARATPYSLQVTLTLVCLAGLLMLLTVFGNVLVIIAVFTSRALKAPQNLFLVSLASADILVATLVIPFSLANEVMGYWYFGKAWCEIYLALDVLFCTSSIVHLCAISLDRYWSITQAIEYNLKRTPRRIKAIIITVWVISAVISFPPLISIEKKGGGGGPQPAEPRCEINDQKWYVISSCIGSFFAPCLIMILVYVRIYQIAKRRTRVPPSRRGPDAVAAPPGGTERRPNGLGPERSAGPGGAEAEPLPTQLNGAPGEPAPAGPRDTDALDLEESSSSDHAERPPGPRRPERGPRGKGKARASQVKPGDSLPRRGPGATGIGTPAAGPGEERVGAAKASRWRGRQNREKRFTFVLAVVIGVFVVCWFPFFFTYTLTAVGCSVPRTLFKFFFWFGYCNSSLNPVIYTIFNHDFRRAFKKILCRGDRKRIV
Experimental: as §1

P2Y = assay: Bioprofiling 6pt Antag P2Y CHO; assay type: cell-based; conditions: antagonist readout vs ATP; read-out: Bioprofiling 6pt Antag P2Y CHO Hamster IC50
Experimental: as §1

[1] = Experimental distribution coefficient (eLogD); assay type: physicochemical; conditions: for chromatographic logD: reverse stationary phase HPLC column (Ascentis RP-Amide)
How it was run: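 Lipophilicity derived from retention time on an Ascentis RP-Amide reverse-phase column by LC-MS/MS, compounds at 1.0 μg/mL with internal standard; mobile phases 5% methanol in 10mM ammonium acetate pH 7.4 and 100% methanol. LogD calculated from a linear calibration of eight standards' retention times against known LogD.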

PDE3A = PDE3A (Homo sapiens, UniProt Q14432); assay: Bioprofiling 6pt Antag PDE3A; assay type: biochemical; conditions: substrate cAMP
Experimental: as §1

Beta1 = target: T3, Beta1 (Homo sapiens, UniProt P08588); assay: Bioprofiling 6pt Antag Beta1 CHO; assay type: cell-based; conditions: antagonist readout vs Norepinephrine
T3 construct: expressed in transfected cells; host or cells: CHO
Experimental: as §1

Medium protein binding = assay type: in vitro ADME; conditions: for Media Binding: S1 Data; for Medium binding: % bound
Experimental: For plasma protein binding, pooled plasma was thawed in a water bath at 37°C and centrifuged at 4,000 rpm for 5 min to remove any clots. The pH value was measured and adjusted to 7.4, if necessary. RPMI medium (pH 7.4) supplemented with 10% fetal calf serum was used. Working solutions (400 μM) of test compounds were prepared by diluting appropriate volume of the stock solutions with DMSO. Working solutions (400 μM) were spiked into plasma to achieve 2 μM final concentrations as loading solutions. The concentration of organic solvent in the final solutions was 0.5% DMSO. The dialysis instrument was assembled following manufacturer’s instructions. Aliquots of loading solution were loaded in triplicate to the donor side of each dialysis well and dialyzed against an equal volume of dialysis buffer. The plate was shaken and incubated for 6 hours in a humidified incubator with 5% CO2 at 37°C. At the end of dialysis, aliquots of dialysate and retentate were removed into sample collection plates. Each sample was matched with an opposite blank buffer or plasma, with a ratio of matrix:dialysis buffer of 50:50 (v:v) in each well and participated with 500μL of stop solution (50% acetonitrile/methanol; internal standards—200 ng/mL tolbutamide, labetalol and 50 ng/mL metformin). All sample collection plates were rotated at 800 rpm for 5 min to mix samples and centrifuged at 20°C, 4000 rpm for 20 min. Aliquots of supernatant of all the samples were removed and injected into LC-MS/MS. Results were calculated as the percentage of remaining parent compound in plasma or medium after incubation.

T3 sequence (P08588 whole entry): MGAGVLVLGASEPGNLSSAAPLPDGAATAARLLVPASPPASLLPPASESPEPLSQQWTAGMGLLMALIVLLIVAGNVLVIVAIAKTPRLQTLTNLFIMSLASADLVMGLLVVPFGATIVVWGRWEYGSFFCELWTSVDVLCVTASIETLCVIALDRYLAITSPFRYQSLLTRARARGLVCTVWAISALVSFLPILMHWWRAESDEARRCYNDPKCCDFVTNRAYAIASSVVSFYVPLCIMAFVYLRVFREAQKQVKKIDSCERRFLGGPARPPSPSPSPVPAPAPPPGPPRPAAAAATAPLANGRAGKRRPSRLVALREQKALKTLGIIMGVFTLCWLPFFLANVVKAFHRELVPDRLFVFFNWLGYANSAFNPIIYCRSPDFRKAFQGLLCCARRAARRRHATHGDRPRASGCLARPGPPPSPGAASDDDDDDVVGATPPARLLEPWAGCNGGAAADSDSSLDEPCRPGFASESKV
Sequence of PDE3A (Q14432 whole entry): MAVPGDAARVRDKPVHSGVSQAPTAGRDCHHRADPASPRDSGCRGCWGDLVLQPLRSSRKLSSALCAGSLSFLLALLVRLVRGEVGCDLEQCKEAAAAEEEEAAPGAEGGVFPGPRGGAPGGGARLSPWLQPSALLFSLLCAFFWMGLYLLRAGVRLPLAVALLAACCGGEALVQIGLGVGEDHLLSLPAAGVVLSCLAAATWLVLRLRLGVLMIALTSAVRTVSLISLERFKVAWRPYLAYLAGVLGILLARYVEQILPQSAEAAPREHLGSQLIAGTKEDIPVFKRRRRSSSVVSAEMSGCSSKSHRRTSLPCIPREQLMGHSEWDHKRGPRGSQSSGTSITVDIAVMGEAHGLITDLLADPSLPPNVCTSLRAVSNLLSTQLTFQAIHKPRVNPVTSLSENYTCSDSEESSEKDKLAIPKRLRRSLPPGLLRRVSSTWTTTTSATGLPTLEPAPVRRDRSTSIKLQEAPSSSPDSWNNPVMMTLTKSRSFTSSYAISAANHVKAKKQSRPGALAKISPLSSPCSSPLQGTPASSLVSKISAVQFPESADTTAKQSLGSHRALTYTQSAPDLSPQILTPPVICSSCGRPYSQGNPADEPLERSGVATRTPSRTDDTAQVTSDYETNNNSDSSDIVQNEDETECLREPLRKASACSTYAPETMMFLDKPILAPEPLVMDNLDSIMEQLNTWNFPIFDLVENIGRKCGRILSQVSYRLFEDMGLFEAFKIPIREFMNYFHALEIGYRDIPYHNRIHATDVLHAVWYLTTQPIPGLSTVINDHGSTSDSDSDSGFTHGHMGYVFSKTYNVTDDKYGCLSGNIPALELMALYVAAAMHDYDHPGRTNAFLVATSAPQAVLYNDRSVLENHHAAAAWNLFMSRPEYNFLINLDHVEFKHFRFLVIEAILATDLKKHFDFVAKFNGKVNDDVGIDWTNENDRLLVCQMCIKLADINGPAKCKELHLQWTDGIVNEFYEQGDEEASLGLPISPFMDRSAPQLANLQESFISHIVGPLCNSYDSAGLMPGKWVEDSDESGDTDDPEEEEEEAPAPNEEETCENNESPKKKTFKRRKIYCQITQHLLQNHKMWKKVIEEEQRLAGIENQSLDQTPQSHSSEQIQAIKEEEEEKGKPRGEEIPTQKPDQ

| Compound | Plasma Stability (Plasma stability) [%] | IC50 (Alpha1A) [µM] | IC50 (Alpha2A) [µM] | IC50 (P2Y) [µM] | eLogD ([1]; experimental, pH 7.4) | chromatographic logD ([1]; pH 7.4, S1 Data) | IC50 (PDE3A) [µM] | IC50 (Beta1) [µM] | Media Binding (Medium protein binding) [%] | Mouse plasma stability (Plasma stability) [%] | eLogD ([1]; S1 Data) | chromatographic logD ([1]; experimental, pH 7.4) | Medium binding (Medium protein binding) [%] |
| --- | --- | --- | --- | --- | --- | --- | --- | --- | --- | --- | --- | --- | --- |
| COc1ccc(C(=O)Nc2nc3ccc(C#N)cc3n2CC(F)(F)F)cn1 [Compound 43, O=C(c1ccc(OC)nc1)Nc2nc(ccc(C#N)c3)c3n2CC(F)(F)F] | 92.20 | > 10 | > 10 | > 10 | 4.9 | 4.85 | > 10 | > 10 | 56.74 |  |  |  |  |
| N#Cc1ccc2nc(NC(=O)c3ccc(C(F)(F)F)nc3)n(CC(F)(F)F)c2c1 [Compound 45, O=C(c1ccc(C(F)(F)F)nc1)Nc2nc(ccc(C#N)c3)c3n2CC(F)(F)F] | 135 | > 10 | > 10 | > 10 | 3.1 | 3.1 | > 10 | > 10 | 83.98 |  |  |  |  |
| N#Cc1ccc2nc(NC(=O)c3ccnc(C(F)(F)F)c3)n(CC(F)(F)F)c2c1 [Compound 44, O=C(c1ccnc(C(F)(F)F)c1)Nc2nc(ccc(C#N)c3)c3n2CC(F)(F)F] | 110.80 | > 10 | > 10 | > 10 |  |  | 2.7 | > 10 | 88.65 | 111 | 3.12 | 3.1 | 88.7 |
| Cn1nccc1C(=O)Nc1nc2ccc(C#N)cc2n1CC(C)(C)C [Compound 29, O=C(Nc1n(CC(C)(C)C)c(c2n1)cc(C#N)cc2)c3n(C)ncc3] | 99.80 | > 10 | > 10 | > 10 |  |  | > 10 | > 10 | 57.20 | 99.8 | 3.39 | 3.4 |  |
| Cn1nccc1C(=O)Nc1nc2ccc(C#N)cc2n1CC(F)(F)F [Compound 30, O=C(c1ccnn1C)Nc2nc(ccc(C#N)c3)c3n2CC(F)(F)F] | 107 | > 10 | > 10 | > 10 |  |  | > 10 | > 10 | 29.15 | 107 | 2.70 | 2.7 | 29.2 |
| Cn1nc(C(F)(F)F)cc1C(=O)Nc1nc2ccc(C#N)cc2n1CC(F)(F)F [Compound 39, O=C(c1cc(C(F)(F)F)nn1C)Nc2nc(ccc(C#N)c3)c3n2CC(F)(F)F] | 111 | > 10 | > 10 | > 10 |  |  | 3.32 | > 10 | 88.34 | 111 | 3.01 | 3 | 88.3 |
